Reference: PubChem BioAssay (NCI)
Where “and” joins values, the source holds several entries; their conditions need not be identical. Equal values may be shown once.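 Compound exposure: 48 hours, 5 concentrations, 96-well plates. GI50: concentration for 50% inhibition of growth. TGI denotes the concentration required for complete inhibition of growth.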

Experiments:
Assay in all cases: NCI tumour cell line growth inhibition, 48 h
[1] = system: HT29 colon
[2] = system: HCT-15 colon
[3] = system: SF-268 CNS
[4] = system: NCI-H226 lung
[5] = system: NCI-H460 lung
[6] = system: SF-295 CNS
[7] = system: LOX IMVI melanoma
[8] = system: HCC-2998 colon
[9] = system: M14 melanoma
[10] = system: SR leukemia

Row | Structure (SMILES) | TGI [1] [µM] | TGI [2] | TGI [3] [µM] | TGI [4] [µM] | TGI [5] [µM] | TGI [6] | TGI [7] | TGI [8] | TGI [9] [µM] | TGI [10] [µM] | GI50 [1] | GI50 [10] | GI50 [2] | GI50 [3] | GI50 [5] | GI50 [6] | GI50 [9] | GI50 [7] | GI50 [8] | GI50 [4] [µM]
1 | CCC1CN2CCc3cc(OC)c(OC)cc3C2CC1CC1c2cc(OC)c(OC)cc2CCN1C(=O)CNC(=O)OC(C)(C)C (configuration not stated) | > 100 | 68.7 µM | 70.3 | 53 | 46.4 | 34.4 µM | 73.6 µM | 12.3 µM | – | – | – | – | – | – | – | – | – | – | – | –
2 | O=C(O)CCC1CCc2cccc3occ1c23 (configuration not stated) | > 100 | > 100 µM | > 100 | > 100 | > 100 | > 100 µM | > 100 µM | > 100 µM | > 100 | – | – | – | – | – | – | – | – | – | – | –
3 | C/C(=N\NC(N)=O)C(CN(C)C)C(c1ccccc1)c1c(O)c2ccccc2oc1=O (configuration not stated) | > 100 | > 100 µM | > 100 | > 100 | > 100 | > 100 µM | > 100 µM | > 100 µM | > 100 | > 100 | – | – | – | – | – | – | – | – | – | –
4 | C[C@H](CSC(=O)c1ccccc1)C(=O)N1c2ccccc2C[C@H]1C(=O)O | > 100 | > 100 µM | > 100 | > 100 | > 10 | > 100 µM | – | > 100 µM | – | > 100 | – | – | – | – | – | – | – | – | – | –
5 | C/C=C(/CCCCNCCCC)[Si](C)(C)C | 14.7 | 30 µM | 26.2 | – | 31.9 | 29.2 µM | 28.3 µM | 18.2 µM | 27.7 | 35.1 | – | – | – | – | – | – | – | – | – | –
6 | CCCCCc1c(C)[nH]c(/C=C2\N=C(c3ccc[nH]3)C=C2Oc2ccc(Cl)cc2)c1C | 18.3 | 1.46 µM and 1.05 µM | 3.18 | – | 12 | 0.57 µM and 1.1 µM | 0.046 µM and 0.0473 µM | 2.67 µM and 7.35 µM | – | > 100 | 0.0402 µM and 0.028 µM | 0.0372 µM and < 0.01 µM | 0.0779 µM and 0.0287 µM | 0.0767 µM and 0.0338 µM | 0.0545 µM and 0.024 µM | 0.17 µM and 0.0832 µM | 0.0789 µM and 0.0203 µM | 0.0204 µM and < 0.01 µM | 0.0439 µM and 0.0241 µM | –
7 | COc1cc(Oc2c(O)c(C)c(OC)c(C(C)=O)c2O)c(C(C)=O)c(O)c1C | > 100 | > 100 µM | > 100 | > 100 | > 100 | > 100 µM | > 100 µM | > 100 µM | > 100 | > 100 | – | – | – | – | – | – | – | – | – | –
8 | FC(F)(F)c1ccc2nc(Nc3ccc(Cl)c(Cl)c3)c(-c3ccccc3)nc2c1 | > 100 | > 100 µM | > 100 | > 100 | > 100 | > 100 µM | > 100 µM | > 100 µM | – | > 100 | – | – | – | – | – | – | – | – | – | –
9 | C=C(N=[N+]=[N-])c1cn(C2CC(O)C(CO)O2)c(=O)[nH]c1=O (configuration not stated) | > 100 | > 100 µM | – | > 100 | > 100 | > 100 µM | > 100 µM | > 100 µM | > 100 | > 100 | – | – | – | – | – | – | – | – | – | –
10 | C[C@H](CS(C)(=O)=O)Nc1ncc2cc(Oc3ccc(F)cc3F)c(=O)n(C)c2n1 | > 25 | > 25 µM | > 25 | > 25 | > 25 | > 25 µM | > 25 µM | > 25 µM | > 25 | > 25 | > 25 µM | > 25 µM | > 25 µM | > 25 µM | > 25 µM | > 25 µM | > 25 µM | > 25 µM | > 25 µM | > 25
11 | O=c1[nH]cc(OCC(F)(F)F)c(=O)[nH]1 | > 100 | > 100 µM | > 100 | – | > 100 | > 100 µM | > 100 µM | > 100 µM | > 100 | > 100 | – | – | – | – | – | – | – | – | – | –
12 | Cn1cc(-c2ccc(CNc3cc(-c4cnc5cc(OCCCN6CCCC6)ccn45)ncn3)cc2)cn1 | 2.72 | 12 µM | 4.19 | 4.81 | 3.37 | – | 3.4 µM | 5.71 µM | 3.2 | 7.12 | 1.33 µM | 2.17 µM | 2.81 µM | 1.9 µM | 1.77 µM | – | 1.74 µM | 1.75 µM | 2.21 µM | 2.03
13 | C=C(C)[C@@H]1CC[C@@]2(C)[C@H]1[C@H]1CCC3[C@@]4(C)CC[C@H](O)C(C)(C)[C@@H]4CC[C@@]3(C)[C@]1(C)C[C@@H]2O (some centres not stated) | > 100 | > 100 µM | > 100 | > 100 | > 100 | 80.6 µM | > 100 µM | – | > 100 | > 100 | – | – | – | – | – | – | – | – | – | –
14 | CC(C)=CC(=O)CC(=O)C(=O)Nc1ccc(Cl)c(Cl)c1 | > 100 | > 100 µM | > 100 | > 100 | > 100 | > 100 µM | – | > 100 µM | > 100 | > 100 | – | – | – | – | – | – | – | – | – | –
15 | Cc1cn2c(/C=N/N/C(N)=N\N)c(-c3ccc(Cl)c([N+](=O)[O-])c3)nc2s1 | – | 2.04 µM | 2.37 | – | – | 1.8 µM | – | – | – | – | – | – | 0.968 µM | 1.03 µM | – | 0.891 µM | – | – | – | –
16 | Cc1c2ccncc2c(C)c2c1[nH]c1ccc(OC(C)(C)C)cc12 | 7.09 | – | 25.5 | 14.8 | – | 4.87 µM | 7.53 µM | 3.78 µM | 14.9 | – | – | – | – | – | – | – | – | – | – | –
17 | CN(C)C(=O)C1CCC(=C2C(=O)OC(C)(C)OC2=O)N1C (configuration not stated) | > 100 | > 100 µM | > 100 | > 100 | > 100 | > 100 µM | > 100 µM | > 100 µM | > 100 | – | – | – | – | – | – | – | – | – | – | –
18 | COc1ccc(COCC(Cn2ccnc2)OCc2ccc(C(=O)O)cc2)cc1 (configuration not stated) | > 100 | > 100 µM | > 100 | > 100 | > 100 | > 100 µM | > 100 µM | > 100 µM | > 100 | – | – | – | – | – | – | – | – | – | – | –
19 | COc1ccc(-c2ccc(/C=N/n3c(COc4ccc(Cl)cc4)n[nH]c3=S)o2)c([N+](=O)[O-])c1 | 50.9 | 45.8 µM | 42.6 | 57.8 | 32.8 | – | – | 31.2 µM | > 100 | – | 21.1 µM | – | 16 µM | 16.6 µM | 13 µM | – | 32.7 µM | – | 16.5 µM | 13.5
20 | Nc1nc(Nc2cccc(F)c2)nc2ccccc12 | 39.3 | 47 µM | > 100 | > 100 | 57.3 | 42.7 µM | 29 µM | 37.3 µM | – | 80.7 | 21.4 µM | 24.7 µM | 18.4 µM | 28.5 µM | 20.1 µM | 17.8 µM | – | 15.5 µM | 18 µM | 35
